What was measured:
[1] = Liquid, Ebulliometric method (Recirculating still)
[2] = refractive index (Na D-line) (dimensionless); xn = mol fraction of the nth substance listed; conditions: 293.15 K, 101 kPa, Liquid, Standard Abbe refractometry

CCCCO [butan-1-ol]
[1]
Conditions	vapor or sublimation pressure [kPa]
356.35 K	25.3
359.45 K	29.3
362.95 K	33.5
368.6 K	42.8
373.45 K	52.5
377.3 K	61.2
381.9 K	72.8
386.05 K	84.9
391.95 K	105.3
395.8 K	120.1

CCCCO [butan-1-ol] + CCCO
[2]
Conditions	refractive index
x2 = 0	1.3992
x2 = 0.0852	1.3979
x2 = 0.1369	1.3971
x2 = 0.1987	1.3962
x2 = 0.2741	1.395
x2 = 0.3521	1.3939
x2 = 0.4218	1.3928
x2 = 0.5	1.3916
x2 = 0.5742	1.3905
x2 = 0.6588	1.3892
x2 = 0.7123	1.3884
x2 = 0.7986	1.3871
x2 = 0.862	1.3862
x2 = 0.936	1.385

CCCO [propan-1-ol]
[1]
Conditions	vapor or sublimation pressure [kPa]
337.95 K	25.6
341.35 K	30.1
346.15 K	37.4
350.8 K	46
353.25 K	51.1
357.35 K	60.7
362.45 K	74.7
366.25 K	86.8
370.4 K	101.8
373.65 K	114.9

CCCO [propan-1-ol] + CCCCO
Conditions	refractive index
[2], x1 = 1	1.3841

— the NIST ThermoML archive (doi:10.1016/j.jct.2010.02.001)
